The assay deals with T1, Human recombinant His-tagged PFKFB3 (Homo sapiens, UniProt Q16875).
T1 construct: His; made in house
The assay can be described thus: PFKFB3 IC50 Determination Assay (in vitro kinase assay, modified ADP-Glo system). The class given is biochemical. The conditions noted are these: ATP 20 μM and fructose-6-phosphate 2 μM (Km), 25 nM PFKFB3, 2 h, rt, ADP-Glo luminescence. As for the experimental part: PFKFB3 IC50 Determination Assay
In vitro kinase assay used to determine IC50 values for tested inhibitors is based on a modified ADP-Glo™ system (Promega) and consists of two parts:
1. Kinase reaction—performed in optimized conditions. At this step PFKFB3 phosphorylates its substrate Fructose-6-phosphate using ATP as a source of phosphate to produce Fructose-2,6-bisphosphate and ADP. Reaction is performed at Km values for ATP and substrate using optimized buffer composition and time of the reaction. Human recombinant His-tagged PFKFB3 (PFKFB3 BATCH II SEC) with confirmed activity is produced and purified in-house. 2. Detection of ADP as a product of the reaction using ADP-Glo™ system. This part is conducted by using the commercially available kit ADP-Glo™ Kinase Assay (Promega, cat. No# V9103) according to manufacturer's instruction, modified by 5x dilutions of assay reagents (both ADP-Glo™ Reagent and Kinase Detection Solution).
Test compounds are dissolved in DMSO and then transferred to the V-bottom 96-well plate.
15 μL per well of Mix 1 is transferred to assay wells of 96-well white plate. […] Total reaction volume is 30 μL per well. Samples are tested in duplicates. Final concentration of DMSO in the reaction is 6.7%. Conditions needed for performing PFKFB3 (PFKFB3 BATCH II SEC) in vitro kinase assay are given below:
This protocol is based on Technical Bulletin, ADP-Glo™ Kinase Assay (Promega) and is adapted to 96-well plate containing 30 μL reaction mixture:
30 μL of 5x diluted ADP-Glo™ Reagent is added to each well of 96-well plate containing 30 μL of reaction mixture. The plate is incubated for 90 minutes on a shaker at RT. 60 μL of 5x diluted Kinase Detection Solution is added to each well of 96-well plate containing 60 μL of the solution (ratio of kinase reaction volume to ADP-Glo™ Reagent volume to Kinase Detection Solution volume is maintained at 1:1:2). Plate is incubated for 40 minutes on a shaker at RT, protected from light. Luminescence is measured in the plate reader Synergy 2 (BioTek).
Luminescent readouts for compounds tested in 10 concentrations (routinely from 100 μM to […], […] serial dilutions) in duplicates, as well as for positive control, are first normalized to no-substrate negative control by its subtraction. In the next step, % of normalized positive control is calculated for each data point and plotted against test compound concentration:
% of control percent of positive control normalized to no-substrate negative control Lumcpd luminescence of test compound Lumneg luminescence of no-substrate negative control Lumpos luminescence of positive control
IC50 parameter is determined by the GraphPad Prism 5.0 software [log(inhibitor) vs. response −Variable slope (four parameters)].
(In general: In ADP-Glo the light output rises with the ADP produced.)

T1 sequence (Q16875 whole entry): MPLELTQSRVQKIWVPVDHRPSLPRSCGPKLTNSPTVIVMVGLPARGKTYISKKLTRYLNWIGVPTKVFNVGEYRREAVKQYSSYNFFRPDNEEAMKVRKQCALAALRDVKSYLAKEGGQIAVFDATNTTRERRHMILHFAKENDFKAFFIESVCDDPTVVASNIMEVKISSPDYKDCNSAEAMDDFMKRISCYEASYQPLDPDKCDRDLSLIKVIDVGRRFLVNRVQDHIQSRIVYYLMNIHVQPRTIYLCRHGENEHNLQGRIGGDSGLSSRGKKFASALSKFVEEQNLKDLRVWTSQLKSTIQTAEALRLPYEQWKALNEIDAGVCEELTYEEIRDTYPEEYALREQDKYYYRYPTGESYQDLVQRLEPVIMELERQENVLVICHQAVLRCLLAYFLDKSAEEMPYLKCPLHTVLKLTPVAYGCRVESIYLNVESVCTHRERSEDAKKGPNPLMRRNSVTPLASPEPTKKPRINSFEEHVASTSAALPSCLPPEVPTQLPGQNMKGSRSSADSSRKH

The IC50 is the concentration needed to halve the response being measured. Regarding `COC(=O)c1ccc(S(C)(=O)=O)c(Nc2cc(-c3ccc4ccn(C)c4c3)c3nccnc3c2)c1` [Example 115, Methyl 4-methanesulfonyl-3-{[8-(1-methyl-1H-indol-6-yl)quinoxalin-6-yl]amino}benzoate], the IC50 lay within 1000 to 10000 nM. In the case of `Cn1ccc2ccc(-c3cc(Nc4cc(C(N)=O)ccc4S(C)(=O)=O)cc4nccnc34)cc21` [Example 116, 4-Methanesulfonyl-3-{[8-(1-methyl-1H-indol-6-yl)quinoxalin-6-yl]amino}benzamide], the IC50 was in the range of 1 to 1000 nM.

On to `CS(=O)(=O)c1ccncc1Nc1cc(-c2ccc3n[nH]nc3c2)c2nccnc2c1` [Example 118, 8-(1H-1,2,3-Benzotriazol-5-yl)-N-(4-methanesulfonylpyridin-3-yl)quinoxalin-6-amine], for which the IC50 fell in the range of 1000 to 10000 nM. With `Cn1ccc2ccc(-c3cc(Nc4cc(C(=O)NN)ccc4S(C)(=O)=O)cc4nccnc34)cc21` [Example 119, 4-Methanesulfonyl-3-{[8-(1-methyl-1H-indol-6-yl)quinoxalin-6-yl]amino}benzohydrazide], the IC50 was 1 to 1000 nM.

As for `CN(c1cc(-c2ccc3ccn(C)c3c2)c2nccnc2c1)c1cnccc1C(=O)Nc1cncnc1` [Example 125, 3-{Methyl[8-(1-methyl-1H-indol-6-yl)quinoxalin-6-yl]amino}-N-(pyrimidin-5-yl)pyridine-4-carboxamide], the IC50 was in the range of 1000 to 10000 nM. The result for `Cn1ccc2ccc(-c3cc(Nc4cnccc4C(=O)NC4CCCCC4)cc4nccnc34)cc21` [Example 126, N-Cyclohexyl-3-{[8-(1-methyl-1H-indol-6-yl)quinoxalin-6-yl]amino}pyridine-4-carboxamide] reads 1000 to 10000 nM. For the molecule `Cc1ccc(C(N)=O)c(-c2cc(Nc3cnccc3S(C)(=O)=O)cc3nccnc23)c1` [Example 128, 2-{7-[(4-methanesulfonylpyridin-3-yl)amino]quinoxalin-5-yl}-4-methylbenzamide], the IC50 is 10000 to 100000 nM. As for `CCOc1cccc(-c2cc(Nc3cnccc3S(C)(=O)=O)cc3nccnc23)c1` [Example 129, 8-(3-Ethoxyphenyl)-N-(4-methanesulfonylpyridin-3-yl)quinoxalin-6-amine], the IC50 was in the range of 10000 to 100000 nM. Regarding `CC(C)Oc1cccc(-c2cc(Nc3cnccc3S(C)(=O)=O)cc3nccnc23)c1` [Example 130, N-(4-Methanesulfonylpyridin-3-yl)-8-[3-(propan-2-yloxy)phenyl]quinoxalin-6-amine], the half-maximal inhibitory concentration (IC50) is 10000 to 100000 nM. In the case of `CC(=O)N1CCOCC1CNC(=O)c1ccncc1Nc1cc(-c2ccc3ccn(C)c3c2)c2nccnc2c1` (stereo not drawn) [Example 136, N-[(4-acetylmorpholin-3-yl)methyl]-3-{[8-(1-methyl-1H-indol-6-yl)quinoxalin-6-yl]amino}pyridine-4-carboxamide], the IC50 lay in the range of 1 to 1000 nM.

For the molecule `CN1CCOC(CNC(=O)c2ccncc2Nc2cc(-c3ccc4ccn(C)c4c3)c3nccnc3c2)C1` (stereo not drawn) [Example 137, 3-{[8-(1-methyl-1H-indol-6-yl)quinoxalin-6-yl]amino}-N-[(4-methylmorpholin-2-yl)methyl]pyridine-4-carboxamide], the IC50 is 1 to 1000 nM. On to `Cn1cncc1CNC(=O)c1ccncc1Nc1cc(-c2ccc3ccn(C)c3c2)c2nccnc2c1` [Example 143, N-[(1-methyl-1H-imidazol-5-yl)methyl]-3-{[8-(1-methyl-1H-indol-6-yl)quinoxalin-6-yl]amino}pyridine-4-carboxamide], for which the IC50 fell in the range of 1 to 1000 nM. Take `Cn1ccc2ccc(-c3cc(Nc4cnccc4C(=O)NCc4cccnn4)cc4nccnc34)cc21` [Example 144, 3-{[8-(1-Methyl-1H-indol-6-yl)quinoxalin-6-yl]amino}-N-[(pyridazin-3-yl)methyl]pyridine-4-carboxamide]: the IC50 lay within 1 to 1000 nM. For `Cn1ccc2ccc(-c3cc(Nc4ccncc4C#N)cc4nccnc34)cc21` [Example 145, 4-{[8-(1-Methyl-1H-indol-6-yl)quinoxalin-6-yl]amino}pyridine-3-carbonitrile], the IC50 was in the range of 1000 to 10000 nM.

For `N#Cc1cnccc1Nc1cc(Cl)c2nccnc2c1` [Example 146, 4-[(8-chloroquinoxalin-6-yl)amino]pyridine-3-carbonitrile], the IC50 was 10000 to 100000 nM.

As for `Cn1ccc2ccc(-c3cc(Nc4cncnc4C(N)=O)cc4nccnc34)cc21` [Example 149, 5-{[8-(1-methyl-1H-indol-6-yl)quinoxalin-6-yl]amino}pyrimidine-4-carboxamide], the 50% inhibitory concentration (IC50) fell in the range of 1 to 1000 nM. As to `Cc1csc2ccc(-c3cc(Nc4cnccc4C#N)cc4nccnc34)cc12` [Example 150, 3-{[8-(3-Methyl-1-benzothiophen-5-yl)quinoxalin-6-yl]amino}pyridine-4-carbonitrile], the IC50 lay within 1 to 1000 nM. For the molecule `COc1ccc(C)c(-c2cc(Nc3cnccc3S(C)(=O)=O)cc3nccnc23)c1` [Example 153, N-(4-Methanesulfonylpyridin-3-yl)-8-(5-methoxy-2-methylphenyl)quinoxalin-6-amine], the IC50 was 1000 to 10000 nM.

`Cn1ccc2ccc(-c3cc(Nc4cnccc4C(=O)Oc4ccnc(N)n4)cc4nccnc34)cc21` [Example 160, 2-Aminopyrimidin-4-yl3-{[8-(1-methyl-1H-indol-6-yl)quinoxalin-6-yl]amino}pyridine-4-carboxylate]: the IC50 lay in the range of 1 to 1000 nM. As to `CS(=O)(=O)c1ccncc1Nc1cc(-c2ccc3sncc3c2)c2nccnc2c1` [Example 161, 8-(1,2-Benzothiazol-5-yl)-N-(4-methanesulfonylpyridin-3-yl)quinoxalin-6-amine], the IC50 fell in the range of 1000 to 10000 nM. The result for `CS(=O)(=O)c1ccncc1Nc1cc(-c2ccc(NC(=O)C3CCCN3)cc2)c2nccnc2c1` (stereo not drawn) [Example 164, N-(4-{7-[(4-methanesulfonylpyridin-3-yl)amino]quinoxalin-5-yl}phenyl)pyrrolidine-2-carboxamide] reads 10000 to 100000 nM; that for `CS(=O)(=O)c1ccncc1Nc1cc(-c2cccc(NC(=O)C3CCCN3)c2)c2nccnc2c1` (stereo not drawn) [Example 165, N-(3-{7-[(4-Methanesulfonylpyridin-3-yl)amino]quinoxalin-5-yl}phenyl)pyrrolidine-2-carboxamide], 10000 to 100000 nM. The result for `Cn1nnc2cc(-c3cc(Nc4cnccc4S(C)(=O)=O)cc4nccnc34)ccc21` [Example 167, N-(4-methanesulfonylpyridin-3-yl)-8-(1-methyl-1H-1,2,3-benzotriazol-5-yl)quinoxalin-6-amine] reads 10000 to 100000 nM; that for `Cc1nc2cc(-c3cc(Nc4cnccc4S(C)(=O)=O)cc4nccnc34)ccc2s1` [Example 169, N-(4-methanesulfonylpyridin-3-yl)-8-(2-methyl-1,3-benzothiazol-5-yl)quinoxalin-6-amine], 10000 to 100000 nM; that for `Cn1nnc2ccc(-c3cc(Nc4cnccc4S(C)(=O)=O)cc4nccnc34)cc21` [Example 170, N-(4-Methanesulfonylpyridin-3-yl)-8-(1-methyl-1H-1,2,3-benzotriazol-6-yl)quinoxalin-6-amine], 10000 to 100000 nM.

`CS(=O)(=O)c1ccncc1Nc1cc(-c2ccc3nc(N)sc3c2)c2nccnc2c1` [Example 174, 8-(2-Amino-1,3-benzothiazol-6-yl)-N-(4-methanesulfonylpyridin-3-yl)quinoxalin-6-amine]: the IC50 lay in the range of 1 to 1000 nM. In the case of `CN(C)Cc1ccncc1Nc1cc(-c2ccc3ccn(C)c3c2)c2nccnc2c1` [Example 175, N-{4-[(dimethylamino)methyl]pyridin-3-yl}-8-(1-methyl-1H-indol-6-yl)quinoxalin-6-amine], the IC50 was in the range of 1 to 1000 nM.

Source of the values: patent US20180118718A1, “Substituted Quinoxaline Derivatives” (Selvita S.A., priority 2015, published 2018).
